In patent US20220214363A1, “NOVEL LIGAND ASSAYS” (InsituGen Limited, priority 2019, published 2022):

Target: T1, AR (Homo sapiens, UniProt P10275)
T1 sequence (P10275 1-920): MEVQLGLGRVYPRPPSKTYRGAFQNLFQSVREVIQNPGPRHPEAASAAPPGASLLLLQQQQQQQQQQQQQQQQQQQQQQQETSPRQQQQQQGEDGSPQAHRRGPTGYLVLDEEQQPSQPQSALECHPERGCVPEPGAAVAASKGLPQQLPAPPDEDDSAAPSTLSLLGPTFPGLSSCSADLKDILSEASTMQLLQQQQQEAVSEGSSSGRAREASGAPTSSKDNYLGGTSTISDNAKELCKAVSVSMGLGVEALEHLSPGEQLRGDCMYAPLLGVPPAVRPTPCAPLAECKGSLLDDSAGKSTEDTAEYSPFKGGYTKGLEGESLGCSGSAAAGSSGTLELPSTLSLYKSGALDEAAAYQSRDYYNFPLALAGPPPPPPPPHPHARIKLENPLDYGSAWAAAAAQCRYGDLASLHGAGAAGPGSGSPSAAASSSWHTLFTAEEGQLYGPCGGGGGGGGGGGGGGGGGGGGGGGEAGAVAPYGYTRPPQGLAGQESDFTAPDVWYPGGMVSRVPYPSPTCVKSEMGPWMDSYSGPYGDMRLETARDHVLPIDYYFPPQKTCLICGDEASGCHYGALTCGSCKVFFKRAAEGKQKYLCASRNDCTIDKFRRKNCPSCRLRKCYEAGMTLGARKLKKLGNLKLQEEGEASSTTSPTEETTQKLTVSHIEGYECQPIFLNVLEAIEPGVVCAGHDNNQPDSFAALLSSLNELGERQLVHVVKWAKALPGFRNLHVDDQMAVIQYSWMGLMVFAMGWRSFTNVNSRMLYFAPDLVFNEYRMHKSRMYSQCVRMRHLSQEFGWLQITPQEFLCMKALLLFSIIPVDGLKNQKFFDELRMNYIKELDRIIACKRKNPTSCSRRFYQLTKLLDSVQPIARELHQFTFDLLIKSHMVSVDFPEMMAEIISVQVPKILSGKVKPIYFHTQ
Settings: gelding urine sample spiked with trenbolone before deconjugation and extraction; vs ethanol control set at 100%
Source text: Spiked trenbolone represents a gelding urine sample that had been spiked with trenbolone before the deconjugation and extraction steps. T7 activity measured for the ethanol control was arbitrarily set at 100%.
Racehorse urine samples were collected on race day and steroids deconjugated and extracted using routine processes. The extracted steroids were resuspended in ethanol and subjected to the assay.

In the case of `C[C@]12C=CC3=C4CCC(=O)C=C4CCC3C1CC[C@@H]2O` (stereo partly shown) [trenbolone], the “suppression of T7-generated Mango II” value is reported as “suppression of T7-generated Mango II”.
